Biological target: human mGluR2 receptor (Homo sapiens (Human), UniProt Q14416)
Assay: [35S]GTPγS binding assay (PAM assay)
Assay type: biochemical
Settings: membranes from CHO cells transfected with human mGluR2; in presence of glutamate at EC25 concentration; averages of duplicate values of 11-concentration response curves
Experimental: The [^35S]GTPγS binding assay is a functional membrane-based assay used to study G-protein coupled receptor (GPCR) function whereby incorporation of a non-hydrolysable form of GTP, [^35S]GTPγS (guanosine 5′-triphosphate, labelled with […] ^35S), is measured. The G-protein […] subunit catalyzes the exchange of guanosine 5′-diphosphate (GDP) by guanosine triphosphate (GTP) and on activation of the GPCR by an agonist, [^35S]GTPγS, becomes incorporated and cannot be cleaved to continue the exchange cycle (Harper (1998) Current Protocols in Pharmacology 2.6.1-10, John Wiley & Sons, Inc.). […] Here we describe the use of the [^35S]GTPγS binding assay using membranes from cells transfected with the human mGluR2 receptor and adapted from Schaffhauser et al ((2003) Molecular Pharmacology 4:798-810) for the detection of the positive allosteric modulation (PAM) properties of the compounds of this invention.
CHO-cells were cultured to pre-confluence and stimulated with 5 mM butyrate for 24 hours, prior to washing in PBS, and then collected by scraping in homogenisation buffer (50 mM Tris-HCl buffer, pH 7.4, 4° C.). Cell lysates were homogenized briefly (15 s) using an ultra-turrax homogenizer. The homogenate was centrifuged at 23 500×g for 10 minutes and the supernatant discarded. The pellet was resuspended in 5 mM Tris-HCl, pH 7.4 and centrifuged again (30 000×g, 20 min, 4° C.). The final pellet was resuspended in 50 mM HEPES, pH 7.4 and stored at −80° C. in appropriate aliquots before use. Protein concentration was determined by the Bradford method (Bio-Rad, USA) with bovine serum albumin as standard.
Measurement of mGluR2 positive allosteric modulatory activity of test compounds in membranes containing human mGluR2 was performed using frozen membranes that were thawed and briefly homogenized prior to pre-incubation in 96-well microplates (15 μg/assay well, 30 minutes, 30° C.) in assay buffer (50 mM HEPES pH 7.4, 100 mM NaCl, 3 mM MgCl2, 50 μM GDP, 10 μg/ml saponin,) with increasing concentrations of positive allosteric modulator (from 0.3 nM to 50 μM) and either a minimal pre-determined concentration of glutamate (PAM assay), or no added glutamate. For the PAM assay, membranes were pre-incubated with glutamate at EC25 concentration, i.e. a concentration that gives 25% of the maximal response glutamate, and is in accordance to published data (Pin et al. (1999) Eur. J. Pharmacol. 375:277-294). After addition of [^35S]GTPγS (0.1 nM, f.c.) to achieve a total reaction volume of 200 μl, microplates were shaken briefly and further incubated to allow [^35S]GTPγS incorporation on activation (30 minutes, 30° C.). The reaction was stopped by rapid vacuum filtration over glass-fibre filter plates (Unifilter 96-well GF/B filter plates, Perkin-Elmer, Downers Grove, USA) microplate using a 96-well plate cell harvester (Filtermate, Perkin-Elmer, USA), and then by washing three times with 300 μl of ice-cold wash buffer (Na2PO4.2H2O 10 mM, NaH2PO4.H2O 10 mM, pH=7.4). Filters were then air-dried, and 40 μl of liquid scintillation cocktail (Microscint-O) was added to each well, and membrane-bound [^35S]GTPγS was measured in a 96-well scintillation plate reader (Top-Count, Perkin-Elmer, USA). Non-specific [^35S]GTPγS binding is determined in the presence of cold 10 μM GTP.

Sequence of human mGluR2 receptor (Q14416 19-872): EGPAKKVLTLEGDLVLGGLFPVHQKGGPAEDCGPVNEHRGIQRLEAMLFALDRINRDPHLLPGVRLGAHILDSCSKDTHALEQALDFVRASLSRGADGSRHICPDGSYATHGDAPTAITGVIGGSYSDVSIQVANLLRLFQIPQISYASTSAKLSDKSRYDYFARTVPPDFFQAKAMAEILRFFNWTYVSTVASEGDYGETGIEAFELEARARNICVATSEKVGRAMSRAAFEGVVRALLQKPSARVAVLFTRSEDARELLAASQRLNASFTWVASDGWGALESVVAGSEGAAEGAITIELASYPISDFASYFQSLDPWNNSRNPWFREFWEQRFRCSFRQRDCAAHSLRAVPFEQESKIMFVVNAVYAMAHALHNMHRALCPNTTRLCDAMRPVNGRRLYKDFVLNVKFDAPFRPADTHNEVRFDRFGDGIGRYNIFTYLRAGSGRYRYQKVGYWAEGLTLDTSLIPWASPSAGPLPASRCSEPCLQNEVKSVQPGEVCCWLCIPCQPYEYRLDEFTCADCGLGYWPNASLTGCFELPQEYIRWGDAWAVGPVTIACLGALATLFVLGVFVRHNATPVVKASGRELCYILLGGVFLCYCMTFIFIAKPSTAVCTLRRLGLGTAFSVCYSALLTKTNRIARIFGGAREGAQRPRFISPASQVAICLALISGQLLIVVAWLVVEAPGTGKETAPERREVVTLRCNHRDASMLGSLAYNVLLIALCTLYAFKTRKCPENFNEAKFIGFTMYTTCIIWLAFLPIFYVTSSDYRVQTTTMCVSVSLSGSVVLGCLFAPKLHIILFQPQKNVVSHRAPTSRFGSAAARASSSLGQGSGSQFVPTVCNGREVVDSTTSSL

In order of falling “GTPgS - hR2 PAM pEC50” value:
1. CC(C)CCn1ccc(N2CCC(c3ccccc3)CC2)c(Cl)c1=O [Compound 18]  7.20
2. O=c1c(Cl)c(N2CCC(c3cccc(C(F)(F)F)c3)CC2)ccn1CC1CC1 [Compound 16]  7.12
3. CCCCCn1ccc(N2CCC(c3ccccc3)CC2)c(Cl)c1=O [Compound 11]  7.11
4. CCCCn1ccc(N2CCC(c3ccccc3C(C)(C)O)CC2)c(Cl)c1=O [Compound 28, 1′-Butyl-3′-chloro-4-[2-(1-hydroxy-1-methyl-ethyl)-phenyl]-3,4,5,6-tetrahydro-2H,1′H-[1,4′]bipyridinyl-2′-one]  7.06
5. O=c1c(Cl)c(N2CCC(c3ccccc3F)CC2)ccn1CC1CC1 [Compound 12]  7.03
6. O=c1c(Cl)c(N2CCC(c3ccccc3Cl)CC2)ccn1CC1CC1 [Compound 15]  7.00
7. O=c1c(Cl)c(N2CCC(c3ccc(F)cc3F)CC2)ccn1CC1CC1 [Compound 14]  6.92
8. O=c1c(Cl)c(N2CCC(OCCF)(c3ccccc3)CC2)ccn1CC1CC1 [Compound 20, 3′-Chloro-1′-cyclopropylmethyl-4-(2-fluoro-ethoxy)-4-phenyl-3,4,5,6-tetrahydro-2H,1′H-[1,4′]bipyridinyl-2′-one]  6.91
9. CC(C)CCn1ccc(N2CCC(c3ccc(F)cc3F)CC2)c(Cl)c1=O [Compound 24]  6.91
10. O=c1c(Cl)c(N2CCC(c3ccccc3)CC2)ccn1Cc1ccc(OC(F)(F)F)cc1 [Compound 5, 3′-Chloro-4-phenyl-1′-(4-trifluoromethoxybenzyl)-3,4,5,6-tetrahydro-2H,1′H-[1,4′]bipyridinyl-2′-one]  6.90
11. O=c1c(Br)c(N2CCC(c3ccccc3)CC2)ccn1CC1CC1 [Compound 3, 3′-Bromo-1′-cyclopropylmethyl-4-phenyl-3,4,5,6-tetrahydro-2H,1′H-[1,4′]bipyridinyl-2′-one]  6.88
12. O=c1c(Cl)c(N2CCC(c3ccccc3)CC2)ccn1CCC1CC1 [Compound 10]  6.88
13. CCCCn1ccc(N2CCC(c3ccc(C(C)(C)O)cc3F)CC2)c(Cl)c1=O [Compound 29, 1′-Butyl-3′-chloro-4-[2-fluoro-4-(1-hydroxy-1-methyl-ethyl)-phenyl]-3,4,5,6-tetrahydro-2H,1′H-[1,4′]bipyridinyl-2′-one]  6.88
14. CCCCn1ccc(N2CCC(c3ccc(F)cc3F)CC2)c(Cl)c1=O [Compound 25]  6.83
15. CC(C)Cn1ccc(N2CCC(c3ccccc3)CC2)c(Cl)c1=O [Compound 19]  6.71
16. O=c1c(Cl)c(N2CCC(c3ccc(N4CCOCC4)cc3)CC2)ccn1CC1CC1 [Compound 13]  6.64
17. CC(C)CCn1ccc(N2CCC(F)(c3ccccc3)CC2)c(Cl)c1=O [Compound 23]  6.58
18. CC(C)(O)c1ccc(C2CCN(c3ccn(CC4CC4)c(=O)c3Cl)CC2)cc1 [Compound 9, 3′-Chloro-1′-cyclopropylmethyl-4-[4-(1-hydroxy-1-methyl-ethyl)-phenyl]-3,4,5,6-tetrahydro-2H,1′H-[1,4′]bipyridinyl-2′-one]  6.57
19. O=c1c(Cl)c(N2CCC(F)(c3ccccc3)CC2)ccn1CC1CC1 [Compound 17]  6.57
20. O=c1c(Cl)c(N2CCC(c3ccccc3)CC2)ccn1CC1CC1 [Compound 1, 3′-Chloro-1′-cyclopropylmethyl-4-phenyl-3,4,5,6-tetrahydro-2H,1′H-[1,4′]bipyridinyl-2′-one]  6.53
21. CCCCn1ccc(N2CCC(c3ccc(C(C)(C)O)cc3)CC2)c(Cl)c1=O [Compound 27]  6.46
22. O=c1c(C(F)(F)F)c(N2CCC(c3ccccc3)CC2)ccn1CC1CC1 [Compound 4, 1′-Cyclopropylmethyl-4-phenyl-3′-trifluoromethyl-3,4,5,6-tetrahydro-2H,1′H-[1,4′]bipyridinyl-2′-one]  6.45
23. O=c1c(Cl)c(N2CCC(F)(c3ccccc3)CC2)ccn1CCC1CC1 [Compound 26]  6.41
24. N#CC1(c2ccccc2)CCN(c2ccn(CC3CC3)c(=O)c2Cl)CC1 [Compound 6, 3′-Chloro-1′-cyclopropylmethyl-2′-oxo-4-phenyl-3,4,5,6,1′,2′-hexahydro-2H-[1,4′]bipyridinyl-4-carbonitrile]  6.34
25. O=c1c(Cl)c(N2CCC(CF)(c3ccccc3)CC2)ccn1CC1CC1 [Compound 21, 3′-Chloro-1′-cyclopropylmethyl-4-fluoromethyl-4-phenyl-3,4,5,6-tetrahydro-2H,1′H-[1,4′]bipyridinyl-2′-one]  6.25
26. CCCCn1ccc(N2CCC(CO)(c3ccccc3)CC2)c(Cl)c1=O [Compound 22, 1′-Butyl-3′-chloro-4-hydroxymethyl-4-phenyl-3,4,5,6-tetrahydro-2H,1′H-[1,4′]bipyridinyl-2′-one]  6.05
27. O=c1c(C2CC2)c(N2CCC(c3ccccc3)CC2)ccn1CC1CC1 [Compound 8, 3′-Cyclopropyl-1′-cyclopropylmethyl-4-phenyl-3,4,5,6-tetrahydro-2H,1′H-[1,4′]bipyridinyl-2′-one]  6.04

Same assay, conditions: membranes from CHO cells transfected with human mGluR2; in presence of glutamate at EC25 concentration; averages of duplicate values of 11-concentration response curves; read-out: GTPgS - hR2 PAM pEC50 (converted)

CCCCn1ccc(N2CCC(F)(c3ccccc3)CC2)c(Cl)c1=O [Compound 7] was tested, and the EC50 was 240 nM.

— patent US11071729B2, “1′,3′-disubstituted-4-phenyl-3,4,5,6-tetrahydro-2H,1′H-[1,4′]bipyridinyl-2′-ones” (Janssen Pharmaceuticals, Inc., priority 2007, dated 2021)
